Test results published in BindingDB's records for doi:10.1124/jpet.300.1.314 (Glaxosmithkline, 2002).
“And” between values parts separate entries of the source, which are not always exact repeats. Equal values may be shown once.

How the values were obtained:
Substance-K receptor [1] = molecular target: T1, Substance-K receptor (Rattus norvegicus, UniProt P16610)
T1 sequence (P16610 whole entry): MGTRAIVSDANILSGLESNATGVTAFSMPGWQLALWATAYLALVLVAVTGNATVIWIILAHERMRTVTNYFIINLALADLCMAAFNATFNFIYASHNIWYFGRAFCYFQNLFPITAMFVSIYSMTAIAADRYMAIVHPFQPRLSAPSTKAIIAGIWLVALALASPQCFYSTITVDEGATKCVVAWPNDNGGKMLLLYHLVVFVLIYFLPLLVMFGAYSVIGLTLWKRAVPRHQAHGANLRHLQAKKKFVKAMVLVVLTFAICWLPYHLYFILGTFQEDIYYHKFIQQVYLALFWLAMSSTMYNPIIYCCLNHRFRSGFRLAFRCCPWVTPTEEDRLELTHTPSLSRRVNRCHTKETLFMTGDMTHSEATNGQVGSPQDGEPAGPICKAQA

Substance-K receptor [2] = molecular target: T2, Substance-K receptor (Cavia porcellus, UniProt Q64077)
T2 sequence (Q64077 whole entry): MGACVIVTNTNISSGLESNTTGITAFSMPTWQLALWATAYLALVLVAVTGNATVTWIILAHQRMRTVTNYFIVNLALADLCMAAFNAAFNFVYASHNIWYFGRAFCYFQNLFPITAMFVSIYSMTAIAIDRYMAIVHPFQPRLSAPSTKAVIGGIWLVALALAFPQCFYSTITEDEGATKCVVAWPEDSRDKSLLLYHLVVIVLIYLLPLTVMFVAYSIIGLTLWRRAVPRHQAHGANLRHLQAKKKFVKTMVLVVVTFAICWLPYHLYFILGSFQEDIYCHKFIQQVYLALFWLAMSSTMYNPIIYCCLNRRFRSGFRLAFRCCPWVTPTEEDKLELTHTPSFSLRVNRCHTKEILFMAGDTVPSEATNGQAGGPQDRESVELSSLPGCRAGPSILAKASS

Ki (Substance-K receptor [1]): 2.33 µM and 5.25 µM | Ki (Substance-K receptor [2]): > 10 µM
Compound: CC[C@H](NC(=O)c1c(OCC(=O)O)c(-c2ccccc2)nc2ccccc12)c1ccccc1 [N-[(S)-1-Phenylpropyl]-2-phenyl-3-(carboxymethoxy)quinoline-4-carboxamide]
